Tests used:
[1] = biological target: T1, Ubiquitin carboxyl-terminal hydrolase 28 (Homo sapiens, UniProt Q96RU2); assay: Inhibition of USP28 (149 to 703 residues) (unknown origin) expressed in Escherichia coli BL21 (DE3) using Ub-AMC as substrate by fluorescence based analysis
T1 sequence (Q96RU2 whole entry): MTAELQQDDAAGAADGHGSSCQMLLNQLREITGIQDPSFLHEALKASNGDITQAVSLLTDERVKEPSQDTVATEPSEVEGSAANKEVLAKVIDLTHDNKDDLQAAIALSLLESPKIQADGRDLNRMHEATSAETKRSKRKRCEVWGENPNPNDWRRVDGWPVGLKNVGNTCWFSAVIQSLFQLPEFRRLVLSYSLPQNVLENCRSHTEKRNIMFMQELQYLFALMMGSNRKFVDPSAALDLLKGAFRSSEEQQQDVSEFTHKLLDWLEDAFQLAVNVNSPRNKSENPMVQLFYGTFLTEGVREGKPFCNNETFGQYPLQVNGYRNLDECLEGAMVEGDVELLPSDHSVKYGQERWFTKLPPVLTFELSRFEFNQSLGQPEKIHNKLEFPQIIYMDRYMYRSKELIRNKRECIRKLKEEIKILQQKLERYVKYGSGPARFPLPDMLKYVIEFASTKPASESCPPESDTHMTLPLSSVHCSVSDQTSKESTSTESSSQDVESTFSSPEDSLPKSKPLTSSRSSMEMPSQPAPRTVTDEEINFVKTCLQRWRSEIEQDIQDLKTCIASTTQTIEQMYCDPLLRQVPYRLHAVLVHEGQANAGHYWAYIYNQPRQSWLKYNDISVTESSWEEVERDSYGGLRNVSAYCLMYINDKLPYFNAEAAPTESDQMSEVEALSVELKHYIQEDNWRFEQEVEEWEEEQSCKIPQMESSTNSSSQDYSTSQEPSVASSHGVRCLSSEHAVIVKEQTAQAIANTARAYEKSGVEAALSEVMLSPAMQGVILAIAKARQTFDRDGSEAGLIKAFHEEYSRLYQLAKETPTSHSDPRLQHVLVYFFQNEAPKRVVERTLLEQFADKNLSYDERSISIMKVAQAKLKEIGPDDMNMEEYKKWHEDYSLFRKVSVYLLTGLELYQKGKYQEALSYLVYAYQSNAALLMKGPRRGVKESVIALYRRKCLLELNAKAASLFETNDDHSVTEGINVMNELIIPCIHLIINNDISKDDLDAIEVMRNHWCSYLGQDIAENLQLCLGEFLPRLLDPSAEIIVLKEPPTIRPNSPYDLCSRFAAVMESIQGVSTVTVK

LS174T = assay: Antiproliferative activity against human LS174T cells assessed as cell growth inhibition incubated for 3 days by SRB assay; assay type: functional, cell-based; settings: 72 h
HCT-116 = assay: Antiproliferative activity against human HCT-116 cells assessed as cell growth inhibition incubated for 3 days by SRB assay; assay type: functional, cell-based; settings: HCT-116, 72 h
Calu-1 = assay: Antiproliferative activity against human Calu-1 cells assessed as cell growth inhibition incubated for 3 days by SRB assay; assay type: functional, cell-based; settings: Calu-1, 72 h
NCI-H226 = assay: Antiproliferative activity against human NCI-H226 cells assessed as cell growth inhibition incubated for 3 days by SRB assay; assay type: functional, cell-based; settings: NCI-H226, 72 h

Row | IC50 [1] [nM] | Structure (SMILES) | other results
1 | 4240 | CS(=O)(=O)c1ccc(C(=O)Nc2ccc(Cl)c(-c3ccc(N4CCNCC4)cc3)c2)c(Cl)c1 | –
2 | 2130 | CS(=O)(=O)c1ccc(C(=O)Nc2ccc(Cl)c(-c3ccc(CN)cn3)c2)c(Cl)c1 | –
3 | 2940 | COc1ccc(-c2cc(NC(=O)c3ccc(S(C)(=O)=O)cc3Cl)ccc2Cl)cc1 | –
4 | 11000 | CS(=O)(=O)c1ccc(C(=O)Nc2ccc(Cl)c(-c3cccc(N)c3)c2)c(Cl)c1 | –
5 | 360 | CS(=O)(=O)c1ccc(C(=O)Nc2ccc(Cl)c(-c3ccc(CN)cc3)c2)c(Cl)c1 | –
6 | 150 | CS(=O)(=O)c1ccc(C(=O)Nc2ccc(Cl)c(-c3cccc(CN)c3)c2)c(Cl)c1 | –
7 | 2820 | CN(C)c1ccc(-c2cc(NC(=O)c3ccc(S(C)(=O)=O)cc3Cl)ccc2Cl)cc1 | –
8 | 5680 | CS(=O)(=O)c1ccc(C(=O)Nc2ccc(Cl)c(-c3ccc(N)cc3)c2)c(Cl)c1 | –
9 | 1130 | CS(=O)(=O)c1ccc(C(=O)Nc2cc(Cl)cc(-c3ccc(CN)cc3)c2)c(Cl)c1 | –
10 | 8580 | CS(=O)(=O)c1ccc(C(=O)Nc2ccc(Cl)c(-c3ccccc3N)c2)c(Cl)c1 | –

Row | Structure (SMILES) | IC50 [1] [nM] | other results
11 | Cc1ccc2c(N)c(C(=O)N[C@H]3CCc4cc(N5CC6CCC(C5)N6)ccc4C3)sc2n1 | 110 | IC50 (LS174T): 70 nM; IC50 (HCT-116): 190 nM; IC50 (Calu-1): 320 nM; IC50 (NCI-H226): 150 nM
